What was measured:
EphA2 [1] = experiment: EphA2 tyrosine phosphorylation in COS7 cells; assay type: cell-based; details: for tyrosine phosphorylation of endogenous EphA2: COS7 cells stimulated with ephrin-A1 Fc
Experimental: (§1) FIGS. 6A-6F. A. HT22 neuronal cells pretreated with the indicated concentrations of compounds 1 or 2 for 15 min were stimulated with 0.5 μg/mL ephrin-A5 Fc (+) or Fc as a control (−) for 20 min in the continued presence of the compounds. EphA4 immunoprecipitates were probed with anti-phosphotyrosine antibody (PTyr) and reprobed for EphA4. C indicates immunoprecipitations performed with control antibodies from non-immunized rabbits. […] Error bars represent the standard error from 4 experiments for compound 1 and 3 experiments for compound 2. […] C. COS7 cells pretreated with the indicated concentrations of compounds 1 or 2 for 15 min were stimulated with 0.1 μg/mL ephrin-A1 Fc or Fc as a control in the continued presence of the compounds. EphA2 immunoprecipitates were probed with anti-phosphotyrosine antibody (PTyr) and reprobed for EphA2. C indicates immunoprecipitations performed with control antibodies. […] Error bars represent the standard error from 2 experiments. Statistical analyses were performed as in (B). HUVE cells were left unstimulated or stimulated with TNFα for 2 hours in the presence of 400 μM compound 1. Duplicate untreated samples are shown. C indicates immunoprecipitations performed with control antibodies. EphA2 immunoprecipitates were probed with anti-phosphotyrosine antibody (PTyr) and reprobed for EphA2. Levels of EphA2 phosphorylation quantified from immunoblots and normalized to the amount of immunoprecipitated EphA2 were also performed. […] The same protocol described in (C) was used, except that COS7 cells were stimulated with 0.5 μg/mL of ephrin-B2 Fc and the EphB2 receptor was immunoprecipitated. F. COS7 cells pretreated with the indicated concentrations of compounds 1 or 2 were stimulated with EGF (+) or left unstimulated (−). Lysates were probed with anti-phosphotyrosine antibody (PTyr) and reprobed for the EGF receptor.
(§2) Measurement of Receptor Tyrosine Phosphorylation in Cells—HT22 neuronal cells, which endogenously express EphA4, are derived from immortalized mouse hippocampal neurons (Li et al. (1997) Neuron 19(2), 453-463). COST cells, which endogenously express EphA2, EphB2 and the EGF receptor (EGFR), were obtained from ATCC. Both cell lines were grown in Dulbecco's Modified Eagle's Medium (DMEM) (Mediatech, Inc, Herndon, Va.) with 10% fetal bovine serum (FBS) (Hyclone, Logan, Utah) and Pen/Strep. For EphA4 immunoprecipitations, HT22 cells were serum-starved overnight in 0.5% FBS in DMEM and incubated for 15 min with the compounds or DMSO as a control. The cells were then stimulated with 0.5 μg/mL ephrin-A5 Fc, ephrin-A4 Fc or Fc for 20 min in the continued presence of the compounds. […] The protein concentration was calculated using the BCA protein assay kit (Pierce Biotecnology, Rockford, Ill.). […]

[2] = target: T1, EphA4 ligand-binding domain (Homo sapiens, UniProt P54764, C204A); experiment: Isothermal titration calorimetry with EphA4 ligand-binding domain; details: ITC; for Ka / Kb: 10 mM phosphate buffer pH 6.3, 25° C.
T1 construct: His-tagged fusion partner of modified pET32a (N, cleaved yes); made in house; host or cells: E. coli Rosetta-gami (DE3)
T1 sequence (P54764 29-209 C204A): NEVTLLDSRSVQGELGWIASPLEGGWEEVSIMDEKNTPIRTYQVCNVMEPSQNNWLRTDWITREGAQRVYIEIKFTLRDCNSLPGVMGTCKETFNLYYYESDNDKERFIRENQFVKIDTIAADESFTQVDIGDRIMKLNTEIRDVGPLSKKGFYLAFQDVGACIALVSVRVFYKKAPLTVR
Experimental: The free Cys176 in this extra tail was mutated to Ala by use of the site-directed mutagenesis kit (Stratagene) to avoid the formation of non-native disulfide bridges.
Titrations were conducted in 10 mM phosphate buffer (pH 6.3) at 25° C. […] The powders of the two compounds were weighted and then dissolved in 10 mM phosphate buffer with the final pH values adjusted to 6.3. The EphA4 receptor at a concentration of 70 μM was placed in a 1.8 ml sample cell while the compounds at a concentration of 2 mM were loaded into a 300 μL syringe. The samples were degassed for 15 min to remove bubbles before the titrations were initiated. Control experiments with the same parameter settings were also performed for the two compounds without EphA4, to subtract the effects due to sample dilution. To obtain thermodynamic binding parameters, the titration data after subtracting the values obtained from the control experiments were fit to a single binding site model using the built-in software ORIGIN version 5.0 (Microcal Software Inc.).

EphA2 [3] = target: EphA2 (Homo sapiens, UniProt P29317); experiment: EphA2 tyrosine phosphorylation in HUVE endothelial cells treated with TNFα; assay type: cell-based; parameters: endogenous in cells
Chain of EphA2 (Homo sapiens, UniProt P29317) (P29317 24-976): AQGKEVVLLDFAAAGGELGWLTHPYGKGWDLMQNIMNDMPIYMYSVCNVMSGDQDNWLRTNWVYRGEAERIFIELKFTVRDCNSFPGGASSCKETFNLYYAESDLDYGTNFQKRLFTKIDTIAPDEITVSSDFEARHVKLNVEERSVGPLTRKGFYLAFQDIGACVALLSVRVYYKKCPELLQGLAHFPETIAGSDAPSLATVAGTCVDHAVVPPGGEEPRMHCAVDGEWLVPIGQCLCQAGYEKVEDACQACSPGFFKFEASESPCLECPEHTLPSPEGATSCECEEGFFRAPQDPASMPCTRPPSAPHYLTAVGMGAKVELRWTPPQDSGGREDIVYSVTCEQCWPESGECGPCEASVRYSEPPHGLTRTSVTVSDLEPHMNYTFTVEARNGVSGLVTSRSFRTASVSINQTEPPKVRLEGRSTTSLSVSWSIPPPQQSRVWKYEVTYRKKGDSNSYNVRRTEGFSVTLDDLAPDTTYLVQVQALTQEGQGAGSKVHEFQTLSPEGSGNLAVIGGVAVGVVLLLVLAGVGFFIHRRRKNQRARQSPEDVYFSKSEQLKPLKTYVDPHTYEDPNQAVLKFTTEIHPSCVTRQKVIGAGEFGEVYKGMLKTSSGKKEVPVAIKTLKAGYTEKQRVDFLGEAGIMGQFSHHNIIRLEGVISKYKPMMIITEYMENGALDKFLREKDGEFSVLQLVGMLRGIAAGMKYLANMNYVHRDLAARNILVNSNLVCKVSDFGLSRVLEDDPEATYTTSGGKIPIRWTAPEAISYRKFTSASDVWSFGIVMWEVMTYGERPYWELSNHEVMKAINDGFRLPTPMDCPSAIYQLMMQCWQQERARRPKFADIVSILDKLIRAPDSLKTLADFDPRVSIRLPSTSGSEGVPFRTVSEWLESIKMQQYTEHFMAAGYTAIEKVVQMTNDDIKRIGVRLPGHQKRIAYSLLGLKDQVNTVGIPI
Experimental: FIGS. 6A-6F. A. HT22 neuronal cells pretreated with the indicated concentrations of compounds 1 or 2 for 15 min were stimulated with 0.5 μg/mL ephrin-A5 Fc (+) or Fc as a control (−) for 20 min in the continued presence of the compounds. EphA4 immunoprecipitates were probed with anti-phosphotyrosine antibody (PTyr) and reprobed for EphA4. C indicates immunoprecipitations performed with control antibodies from non-immunized rabbits. […] Error bars represent the standard error from 4 experiments for compound 1 and 3 experiments for compound 2. […] C. COS7 cells pretreated with the indicated concentrations of compounds 1 or 2 for 15 min were stimulated with 0.1 μg/mL ephrin-A1 Fc or Fc as a control in the continued presence of the compounds. EphA2 immunoprecipitates were probed with anti-phosphotyrosine antibody (PTyr) and reprobed for EphA2. C indicates immunoprecipitations performed with control antibodies. […] Levels of EphA2 phosphorylation quantified from immunoblots and normalized to the amount of immunoprecipitated EphA2 were also performed. […]
Measurement of Receptor Tyrosine Phosphorylation in Cells—HT22 neuronal cells, which endogenously express EphA4, are derived from immortalized mouse hippocampal neurons (Li et al. (1997) Neuron 19(2), 453-463). […] The protein concentration was calculated using the BCA protein assay kit (Pierce Biotecnology, Rockford, Ill.). […]

EphA4 = EphA4 (Mus musculus, UniProt Q03137); experiment: EphA4 tyrosine phosphorylation in HT22 neuronal cells; assay type: cell-based; parameters: tyrosine phosphorylation of endogenous EphA4 in HT22 neuronal cells stimulated with ephrin-A5 Fc; endogenous in cells; host or cells: HT22 mouse hippocampal neuronal cells; details: for ephrin-induced EphA4 tyrosine phosphorylation: HT22 cells stimulated with ephrin-A5 Fc; for EphA4 phosphorylation: cells stimulated with ephrin-A4
Chain of EphA4 (Q03137 20-986): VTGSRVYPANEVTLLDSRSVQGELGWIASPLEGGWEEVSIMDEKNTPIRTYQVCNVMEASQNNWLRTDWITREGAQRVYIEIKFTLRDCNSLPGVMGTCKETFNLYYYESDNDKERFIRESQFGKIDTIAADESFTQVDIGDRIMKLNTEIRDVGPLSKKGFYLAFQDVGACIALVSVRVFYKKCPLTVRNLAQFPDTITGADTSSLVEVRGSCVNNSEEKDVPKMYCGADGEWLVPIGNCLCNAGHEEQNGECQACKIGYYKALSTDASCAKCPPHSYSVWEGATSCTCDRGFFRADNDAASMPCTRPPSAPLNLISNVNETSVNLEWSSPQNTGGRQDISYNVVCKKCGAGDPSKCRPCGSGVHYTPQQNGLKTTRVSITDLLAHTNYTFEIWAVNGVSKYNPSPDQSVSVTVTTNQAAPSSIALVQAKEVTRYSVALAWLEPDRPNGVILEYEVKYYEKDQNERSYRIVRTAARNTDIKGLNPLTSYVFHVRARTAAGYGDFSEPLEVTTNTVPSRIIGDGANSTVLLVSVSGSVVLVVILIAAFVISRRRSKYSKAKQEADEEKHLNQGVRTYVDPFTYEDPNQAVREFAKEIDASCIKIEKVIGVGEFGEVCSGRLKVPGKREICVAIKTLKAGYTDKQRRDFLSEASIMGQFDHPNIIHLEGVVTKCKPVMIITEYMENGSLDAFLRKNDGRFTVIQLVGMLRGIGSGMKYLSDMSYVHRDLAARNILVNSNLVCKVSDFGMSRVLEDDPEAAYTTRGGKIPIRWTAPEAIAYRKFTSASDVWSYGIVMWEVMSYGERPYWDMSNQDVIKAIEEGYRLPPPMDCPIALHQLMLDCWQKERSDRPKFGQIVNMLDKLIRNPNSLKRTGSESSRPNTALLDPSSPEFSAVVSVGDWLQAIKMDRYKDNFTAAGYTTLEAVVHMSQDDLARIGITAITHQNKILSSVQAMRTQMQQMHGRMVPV
Experimental: as §1, §2

Compound: Cc1ccc(C)n1-c1ccc(C(=O)O)c(O)c1 [compound 1, 4-(2,5-dimethyl-pyrrol-1-yl)-2-hydroxy-benzoic acid]
- ephrin-dependent degradation of EphA2 (EphA2 [1]): prevented
- tyrosine phosphorylation of endogenous EphA2 (EphA2 [1]): inhibited
- Kd [2]: 20.4 µM
- Stoichiometry [2]: 1.000 ± 0
- ΔH, enthalpy change of binding [2]: −1,001 cal
- ΔS [2]: 18.11 cal/mol*K
- Ka [2]: 48930 M⁻¹
- Kb [2]: 20.4 µM
- tyrosine phosphorylation of endogenous EphA2 (EphA2 [3]): inhibited
- ephrin-induced EphA4 tyrosine phosphorylation (EphA4): blocked
- EphA4 phosphorylation (EphA4): did not inhibit

Compound: Cc1ccc(C)n1-c1ccc(O)c(C(=O)O)c1 [compound 2, 5-(2,5 dimethyl-pyrrol-1-yl)-2-hydroxy-benzoic acid]
- ephrin-dependent degradation of EphA2 (EphA2 [1]): prevented
- tyrosine phosphorylation of endogenous EphA2 (EphA2 [1]): inhibited
- Kd [2]: 26.4 µM
- Stoichiometry [2]: 1.000 ± 0
- ΔH, enthalpy change of binding [2]: -237 cal
- ΔS [2]: 20.15 cal/mol*K
- Ka [2]: 37850 M⁻¹
- Kb [2]: 26.4 µM
- tyrosine phosphorylation of endogenous EphA2 (EphA2 [3]): inhibited
- ephrin-induced EphA4 tyrosine phosphorylation (EphA4): blocked
- EphA4 phosphorylation (EphA4): did not inhibit
